Results published in paper doi:10.1101/2023.05.15.540887, “Comparative analysis of drug-like EP300/CREBBP acetyltransferase inhibitors” (bioRxiv, 2023).
Several values for one entry are separate records, joined by “and”; a condition that tells them apart may be missing. Equal values may be shown once.

What was measured:
[1] = tested on: EKVX; assay: NCI-60 growth inhibition (sulforhodamine B); format: cell-based, human; details: EKVX (Non-Small Cell Lung Cancer), negative log of Molar conc., LCONC -8
[2] = tested on: A498; assay: NCI-60 growth inhibition (sulforhodamine B); format: cell-based; details: Homo sapiens, A498, Renal Cancer, negative log of Molar value, LCONC -8, EXPID 2301NS84
[3] = tested on: histone H3 acetylation in T-47D cells; assay: Quantitative LC-MS analysis of histone H3 acetylation in T-47D cells; format: cell-based, human; details: 24 h
Excerpt: In principle the phenotype elicited by any single small molecule can be due to either an on- or off-target effect; however, if multiple chemically distinct small molecules designed to target a single gene all elicit the same phenotype, one’s confidence in their on-target mechanism becomes greater. As such, we sought to apply our knowledge of the comparative potencies of 1-3 to test whether the simplest phenotype caused by EP300/CREBBP inhibitors – cell death – was consistent with their effects on histone acetylation and a putative on-target mechanism. Compounds 1-3 were submitted for analysis in the NCI-60 screen, which has been used since 1990 to analyze the growth inhibitor effects of small molecules across a range of transformed cell lines derived from diverse tissues of origin including colorectal, renal, ovarian, prostate, lung, breast, and central nervous system tumors.[28] […] These trends were further confirmed using an orthogonal ATP-Glo assay in MCF-7 cells (Fig. S2). Subsequently, the COMPARE algorithm was used to compare the patterns of growth inhibition elicited by 1-3 in the NCI-60 assay against the >150,000 compounds analyzed in the screen to date.[29] […] Finally, the specificity of CPI-1612 (3) was directly assessed using quantitative LC-MS analysis of histone acetylation in treated cells,[33] focusing on four abundant histone acetylation markers whose writers are well-characterized: H3K9Ac (written by KAT2A/B), H3K14Ac (KAT7), H3K18Ac (EP300/CREBBP), and H3K23Ac (KAT6A/B; Fig. 3e).[26] […] An increase in the levels of singly modified H3K23Ac peptide coincided with specific loss of H3K18Ac from K18/K23 diacetylated peptide, indicative of orthogonal regulation. Overall, the parallel trends in the biochemical and cellular potencies of EP300/CREBBP inhibitors are consistent with an on-target mechanism for 1-3 and further highlight the relatively high potency of CPI-1612 (3).
T-47D cells were plated at 4 x 10^6 cells per plate in 10 cm dishes in 10 mL of media. After 16-24 h cells were treated with 5, 50, or 500 nM of 3. Compound 3 was dosed from stock solutions equal to 100x the final concentration in RPMI-1640. When necessary additional DMSO was added to maintain a constant concentration of 0.1%. Controls were treated with vehicle DMSO (0.1%). After 24 h, cells were washed with 5 mL ice cold 1x PBS, scraped in 5 mL of 1x PBS, transferred to a pre-chilled 15 mL tube, centrifuged (800 rcf x 5 min), and either snap frozen or immediately processed via the following protocol.^5 Pellets were washed twice and resuspended in 400 µL NIB (15 mM pH 7.5 Tris-HCl, 60 mM KCl, 15 mM NaCl, 5 mM MgCl2, 1 mM CaCl2, 250 mM sucrose, 1X protease inhibitor cocktail [Cell Signaling Technology #5871]), 1 mM DTT, and 10 mM sodium butyrate) with 0.3% IGEPAL CA-630 to lyse cells. Suspensions were transferred into tubes on ice and incubated for >5 min. Nuclei were pelleted (700 rcf, 4 °C , 5 min) and the supernatant discarded. Pelleted nuclei were subjected to two cycles of a wash with 500 µL NIB (without IGEPAL CA-630) followed by centrifugation (700 rcf, 4 °C , 5 min) in order to remove all IGEPAL CA-630. Nuclei were re-suspended in 200 µL 0.2 N H2SO4 and rotated at 4 °C for 2 h. Samples were then centrifuged (3,400 rcf, 4 °C , 5 min) and supernatants transferred into new tubes (pellets discarded). 66 µL of 100% TCA was added to each sample (final TCA concentration: 20%) and tubes were inverted once. Histones were precipitated at 4 °C for 16 h, then centrifuged (3,400 rcf, 4 °C , 5 min) and supernatants carefully discarded, with histones now visible as films on the sides and at the bottom of tubes. Histones were subjected to two cycles of washing (0.5 mL of ice-cold acetone + 1% 1M HCl, followed by 1 mL of 100% ice-cold acetone) followed by centrifugation (11,000 rcf, 4 °C , 5 min) after each step. Samples were air dried at room temperature and resuspended in 30 µL of ddH2O. […]

[4] = tested on: HT29; assay: NCI-60 growth inhibition (sulforhodamine B); format: cell-based, human; details: HT29 (Colon Cancer), negative log of Molar conc., LCONC -8
[5] = tested on: SF-295; assay: NCI-60 growth inhibition (sulforhodamine B); format: cell-based, human; details: SF-295 (CNS Cancer), negative log of Molar conc., LCONC -8
[6] = tested on: CCRF-CEM; assay: NCI-60 growth inhibition (sulforhodamine B); format: cell-based, human; details: CCRF-CEM (Leukemia), negative log of Molar conc., LCONC -8
[7] = tested on: MDA-MB-435; assay: NCI-60 growth inhibition (sulforhodamine B); format: cell-based, human; details: MDA-MB-435 (Melanoma), negative log of Molar conc., LCONC -8
[8] = tested on: KM12; assay: NCI-60 growth inhibition (sulforhodamine B); format: cell-based, human; details: KM12 (Colon Cancer), negative log of Molar conc., LCONC -8
[9] = Homo sapiens, read-out: GI50 NLOGVALUE (converted)
[10] = Homo sapiens, read-out: GI50 NLOGVALUE
[11] = Homo sapiens, read-out: IC50 NLOGVALUE (converted)
[12] = Homo sapiens, read-out: LC50 NLOGVALUE

For `C[C@H](CN[C@@H](C(=O)Nc1ccc(-c2cnn(C)c2)cn1)c1ccccc1)c1ccc(C#N)cc1` [CPI-1612], the “TGI NLOGVALUE” [1] was 4, the GI50 [1, 9] was 1510 nM and the IC50 ([1]; Homo sapiens, read-out: IC50 NLOGVALUE) was greater than 100 µM. It also gave a GI50 ([2]; read-out: GI50 NLOGVALUE (converted)) of 29.5 nM, an IC50 ([2]; read-out: IC50 NLOGVALUE) greater than 100 µM and a CC50 ([2]; read-out: LC50 NLOGVALUE) greater than 100 µM. The “specificity on histone H3 acetylation marks (H3K9Ac, H3K14Ac, H3K18Ac, H3K23Ac)” value ([3]; T-47D cells, 5, 50 or 500 nM, LC-MS) was “affected the abundance of only the EP300/CREBBP-dependent peptides containing H3K18Ac”, the “ratio normalized to largest mean (vehicle or 500 nM), H3_9_17 K9ac (K9Ac)” value ([3]; T-47D, 5 nM, Rep1-3) was 160.77 and 142.38 and the “ratio normalized to largest mean (vehicle or 500 nM), H3_18_26 K18ac (K18Ac)” value ([3]; T-47D, 5 nM, Rep1-3) was 31.25 and 26.23 and 16.75. The “ratio normalized to largest mean (vehicle or 500 nM), summed H3_9_17 K14ac peptides (K14Ac)” value (from here on “ratio normalized to largest mean … (K14Ac)”) ([3]; T-47D, 5 nM, Rep1-3) was 93.75 and 92.27 and 95.59, the “ratio, H3_9_17 K9ac (K9Ac)” value ([3]; T-47D, 5 nM, Rep1-3) was 0.039 and 0.034 and the “ratio, H3_18_26 K18ac (K18Ac)” value ([3]; T-47D, 5 nM, Rep1-3) was 0.0063 and 0.0053 and 0.0034. For the same molecule, the “ratio, H3_18_26 K18acK23ac (K18K23Ac)” value ([3]; T-47D, 5 nM, Rep1-3) was 0.0043 and 0.0044 and 0.0039, the “ratio, H3_18_26 K23ac (K23Ac)” value ([3]; T-47D, 5 nM, Rep1-3) was 0.2133 and 0.2165 and 0.1842 and the “ratio, summed H3_9_17 K14ac peptides (K14Ac)” value ([3]; T-47D, 5 nM, Rep1-3) was 0.181 and 0.179 and 0.185. For the same molecule, the “ratio normalized to largest mean … (K14Ac)” value ([3]; T-47D, 50 nM, Rep1-3) was 92.31 and 100.80 and 86.46, the “ratio, H3_18_26 K23ac (K23Ac)” value ([3]; T-47D, 50 nM, Rep1-3) was 0.2929 and 0.2070 and 0.3135 and the “ratio, summed H3_9_17 K14ac peptides (K14Ac)” value ([3]; T-47D, 50 nM, Rep1-3) was 0.167 and 0.179 and 0.195. For the same molecule, the “ratio normalized to largest mean (vehicle or 500 nM), H3_18_26 K18ac (K18Ac)” value ([3]; T-47D, 500 nM, Rep1-3) was 2.61 and 1.89 and 1.57, the “ratio normalized to largest mean … (K14Ac)” value ([3]; T-47D, 500 nM, Rep1-3) was 103.05 and 88.46 and 106.21 and the “ratio, H3_18_26 K18ac (K18Ac)” value ([3]; T-47D, 500 nM, Rep1-3) was 0.0005 and 0.000379 and 0.0003. For the same molecule, the “ratio, H3_18_26 K23ac (K23Ac)” value ([3]; T-47D, 500 nM, Rep1-3) was 0.2977 and 0.3570 and 0.3048, the “ratio, summed H3_9_17 K14ac peptides (K14Ac)” value ([3]; T-47D, 500 nM, Rep1-3) was 0.199 and 0.171 and 0.206 and the “TGI NLOGVALUE” [4] was 4. It also gave a GI50 ([4]; Homo sapiens, HT-29, read-out: GI50 NLOGVALUE (converted)) of 49 nM, an IC50 ([4]; Homo sapiens, HT-29, read-out: IC50 NLOGVALUE (converted)) of 437 nM and a GI50 [5, 10] of less than 10 nM. The IC50 [5, 11] was 4.17 µM, the CC50 [5, 12] was greater than 100 µM and the “TGI NLOGVALUE” [5] was 4. The “TGI NLOGVALUE” [6] was 4, the GI50 [6, 10] was less than 10 nM and the IC50 [6, 11] was 135 nM. For the same molecule, the CC50 [6, 12] was greater than 100 µM, the GI50 [7, 9] was 47.9 nM and the IC50 [7, 11] was 50.1 µM. The CC50 [7, 12] was greater than 100 µM, the “TGI NLOGVALUE” [7] was 4 and the GI50 [8, 9] was 204 nM. For the same molecule, the IC50 [8, 11] was 3.24 µM, the CC50 [8, 12] was greater than 100 µM and the “TGI NLOGVALUE” [8] was 4.
